1 compound from patent publication US20070116654A1, “Cosmetics” (SHISEIDO CO., LTD., priority 2001, published 2007) can be followed below.

The subject of the data set is back of a marmot. The experiment in a line: Continuous skin irritation test of retinol. Type of data set: in vivo. The note with it: polar oil blend ratio 8 mass %, 0.2 mass % retinol.

Method: “Continuous Skin Irritation Test”
0.05 ml of a sample solution containing a lipophilic drug was applied on a 2×2 cm area of the back of a marmot (first application).
24 hours later, the second application was done.
Again, 24 hours later, the third application was done.
Before the second application, before the third application, and 24 hours after the third application, skin reactions such as erythema and edema was observed by naked eye. Evaluation was conducted based on the following criteria, and the average of the three scores was used as the skin reaction score.
Evaluation Criteria of the Skin Reaction

`CCCCCCCC(=O)OCC(COC(=O)CCCCCCC)(COC(=O)CCCCCCC)COC(=O)CCCCCCC` [pentaerythrityl tetraoctanoate]: the “skin irritation suppression effect (retinol), FIG. 9” value is “superior skin irritation suppression effect”.
